Experimental data from ChEMBL document CHEMBL1124201, “Optimizing of 2,3-diarylindenes as fluorescent estrogens: variation of the acceptor group, ortho substitution of the 2-ring, and C-1 methylation” (J Med Chem, 1988).

Each compound was assayed against Estrogen receptor (Rattus norvegicus) (UniProt P06211+Q62986) (assay: Displacement of [3H]estradiol from estrogen receptor of rat uterine cytosol).
Type: protein assay

Row | Structure (SMILES) | RBA [%]
1 | Oc1ccc(C2=C(c3ccccc3)Cc3cc(O)ccc32)cc1 | 4.7
2 | Oc1ccc(C2=C(c3ccccc3)c3ccc(O)cc3C2)cc1 | 28
3 | Oc1ccc(C2=C(c3ccc(Br)cc3)Cc3cc(O)ccc32)cc1 | 0.76
4 | O=[N+]([O-])c1ccc(C2=C(c3ccccc3)c3ccc(O)cc3C2)cc1 | 0.46
5 | Oc1ccc(C2=C(c3cccnc3)Cc3cc(O)ccc32)cc1 | 0.05
6 | O=[N+]([O-])c1ccc(C2=C(c3ccc(O)cc3)c3ccc(O)cc3C2)cc1 | 0.69

Continued, values first:

Row | RBA [%] | Structure (SMILES)
7 | 30 | Cc1ccccc1C1=C(c2ccc(O)cc2)c2ccc(O)cc2C1
8 | 0.6 | O=[N+]([O-])c1cccc(C2=C(c3ccc(O)cc3)c3ccc(O)cc3C2)c1
9 | 1 | N#Cc1ccc(C2=C(c3ccc(O)cc3)c3ccc(O)cc3C2)cc1
10 | 38 | Oc1ccc(C2=C(c3ccccc3C(F)(F)F)Cc3cc(O)ccc32)cc1
11 | 12 | CC1C(c2ccccc2)=C(c2ccccc2)c2ccc(O)cc21 (stereo unspecified)
